# How the values were obtained:
# Homo sapiens = organism: Homo sapiens; assay: Selectivity for ERbeta over ERalpha
# [1] = molecular target: Estrogen receptor beta (Homo sapiens) (UniProt Q92731); assay: Binding affinity to human ERbeta relative to estradiol by radiometric binding assay
# [2] = molecular target: Estrogen receptor alpha (Homo sapiens) (UniProt P03372); assay: Binding affinity to human ERalpha relative to estradiol by radiometric binding assay
# Estrogen receptor alpha (Homo sapiens), sequence (P03372 whole entry, looked up): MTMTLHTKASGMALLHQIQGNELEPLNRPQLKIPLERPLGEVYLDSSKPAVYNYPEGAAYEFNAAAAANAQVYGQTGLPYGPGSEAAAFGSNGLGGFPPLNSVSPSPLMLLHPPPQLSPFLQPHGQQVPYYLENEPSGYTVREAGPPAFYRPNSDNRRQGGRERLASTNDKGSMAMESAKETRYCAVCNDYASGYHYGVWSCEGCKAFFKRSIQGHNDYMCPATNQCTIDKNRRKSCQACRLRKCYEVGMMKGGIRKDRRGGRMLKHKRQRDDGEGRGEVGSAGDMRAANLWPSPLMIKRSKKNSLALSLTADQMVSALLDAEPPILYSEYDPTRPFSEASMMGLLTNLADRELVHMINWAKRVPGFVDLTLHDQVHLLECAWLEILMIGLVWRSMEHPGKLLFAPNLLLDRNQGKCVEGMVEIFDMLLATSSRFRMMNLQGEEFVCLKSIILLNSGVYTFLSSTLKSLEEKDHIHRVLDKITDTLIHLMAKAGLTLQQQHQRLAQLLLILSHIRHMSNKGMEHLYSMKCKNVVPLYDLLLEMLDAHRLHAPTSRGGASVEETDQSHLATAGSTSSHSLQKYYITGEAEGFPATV
# Estrogen receptor beta (Homo sapiens), sequence (Q92731 whole entry, looked up): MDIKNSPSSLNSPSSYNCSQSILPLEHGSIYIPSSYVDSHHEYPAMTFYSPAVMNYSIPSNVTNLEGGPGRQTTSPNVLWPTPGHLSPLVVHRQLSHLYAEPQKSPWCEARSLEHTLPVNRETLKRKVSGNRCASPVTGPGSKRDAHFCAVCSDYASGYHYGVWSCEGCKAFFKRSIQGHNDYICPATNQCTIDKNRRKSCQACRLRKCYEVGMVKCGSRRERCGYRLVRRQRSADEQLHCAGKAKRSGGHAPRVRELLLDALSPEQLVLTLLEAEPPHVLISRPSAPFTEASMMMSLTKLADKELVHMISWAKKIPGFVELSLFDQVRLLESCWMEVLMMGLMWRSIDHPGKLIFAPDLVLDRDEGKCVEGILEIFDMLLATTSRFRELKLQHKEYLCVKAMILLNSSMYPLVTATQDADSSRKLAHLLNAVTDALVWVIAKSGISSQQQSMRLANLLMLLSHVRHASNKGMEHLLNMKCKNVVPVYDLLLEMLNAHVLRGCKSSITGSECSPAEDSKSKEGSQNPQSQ
Compound,Ratio (Homo sapiens),relative binding affinity (RBA) [1],relative binding affinity (RBA) [2]
COC(=O)C1CCCC(=C(c2ccc(O)cc2)c2ccc(O)cc2)C1 (configuration not stated),1.5,36.5,23.7
OCCCC1CCCC(=C(c2ccc(O)cc2)c2ccc(O)cc2)C1 (configuration not stated),0.98,46.1,47.2
Oc1ccc(C(=C2CCC(CF)CC2)c2ccc(O)cc2)cc1 (configuration not stated),2.3,41.5,18.1
Oc1ccc(C(=C2CCCCCC2)c2ccc(O)cc2)cc1,3.2,354,110
CCOC(=O)C1CCC(=C(c2ccc(O)cc2)c2ccc(O)cc2)CC1 (configuration not stated),0.45,3.02,6.77
Oc1ccc(C(=C2CCCCC2)c2ccc(O)cc2)cc1,2.3,285,124
Oc1ccc(C(=C2CCC(CCOCCCCF)CC2)c2ccc(O)cc2)cc1 (configuration not stated),0.38,1.45,3.77
COC(=O)CC1CCCC(=C(c2ccc(O)cc2)c2ccc(O)cc2)C1 (configuration not stated),0.18,10.3,58.5
COC(=O)CC1CCC(=C(c2ccc(O)cc2)c2ccc(O)cc2)CC1 (configuration not stated),0.16,1.72,10.7
Oc1ccc(C(=C2CCC2)c2ccc(O)cc2)cc1,3.7,20.5,5.61
CC1CCC(=C(c2ccc(O)cc2)c2ccc(O)cc2)CC1 (configuration not stated),4.1,274,66.5
OCC1CCC(=C(c2ccc(O)cc2)c2ccc(O)cc2)CC1 (configuration not stated),0.99,0.841,0.846
Oc1ccc(C(=C2CCC(O)CC2)c2ccc(O)cc2)cc1 (configuration not stated),0.94,0.307,0.327
Oc1ccc(C(=C2CCCC2)c2ccc(O)cc2)cc1,7.7,137,17.8
Oc1ccc(C(=C2CCC(F)CC2)c2ccc(O)cc2)cc1 (configuration not stated),2.3,61.8,27
COC(=O)C(C(=O)OC)C1CCCC(=C(c2ccc(O)cc2)c2ccc(O)cc2)C1 (configuration not stated),0.012,0.234,19.5
Oc1ccc(C(=C2CCC(CCF)CC2)c2ccc(O)cc2)cc1 (configuration not stated),1.2,18.9,15.9
CCC1CCC(=C(c2ccc(O)cc2)c2ccc(O)cc2)CC1 (configuration not stated),1.2,75.6,62.7
Oc1ccc(C(=C2CCCC(CCF)C2)c2ccc(O)cc2)cc1 (configuration not stated),1.1,129,122
Oc1ccc(C(=C2CCCC(CCCF)C2)c2ccc(O)cc2)cc1 (configuration not stated),0.57,91.4,160
CCOCC1CCC(=C(c2ccc(O)cc2)c2ccc(O)cc2)CC1 (configuration not stated),0.58,2.82,4.88
OCC1CCCC(=C(c2ccc(O)cc2)c2ccc(O)cc2)C1 (configuration not stated),1.6,39.6,24.8
OCCC1CCC(=C(c2ccc(O)cc2)c2ccc(O)cc2)CC1 (configuration not stated),0.14,0.372,2.61
OCCC1CCCC(=C(c2ccc(O)cc2)c2ccc(O)cc2)C1 (configuration not stated),1.7,57.6,33.9

# Source: ChEMBL document CHEMBL1146101, “Fluorine-substituted cyclofenil derivatives as estrogen receptor ligands: synthesis and structure-affinity relationship study of potential positron emission tomography agents for imaging estrogen receptors in breast cancer” (J Med Chem, 2006)
